Results: the NIST ThermoML archive (doi:10.1021/je100315g)
Numbers after ± are expanded uncertainties.

Assays:
[1] = 101 kPa, Liquid
[2] = xn = mol fraction of the nth substance listed; details: 101 kPa, Liquid

C[S+](C)[O-] [dimethyl sulfoxide]
[1]
Details | mass density [kg/m3]
293.15 K | 1100.31 ± 0.29
298.15 K | 1095.3 ± 0.28
303.13 K | 1090.31 ± 0.27
308.15 K | 1085.27 ± 0.26
313.15 K | 1080.27 ± 0.26

CCn1cc[n+](C)c1.O=S(=O)([N-]S(=O)(=O)C(F)(F)F)C(F)(F)F + CC#N
mass density [kg/m3], [2]
Details | x1 = 0.0533 | x1 = 0.1886 | x1 = 0.337 | x1 = 0.4724 | x1 = 0.652 | x1 = 0.8245 | x1 = 0.924 | x1 = 1
293.15 K | 946.96 ± 0.45 | 1183.76 ± 0.72 | 1316.94 ± 0.83 | 1390.06 ± 0.88 | 1452.53 ± 0.91 | 1492.64 ± 0.92 | 1510.36 ± 0.94 | 1522.08 ± 0.95
298.15 K | 941.54 ± 0.39 | 1178.5 ± 0.64 | 1311.68 ± 0.82 | 1384.82 ± 0.87 | 1447.4 ± 0.9 | 1487.58 ± 0.92 | 1505.26 ± 0.93 | 1516.96 ± 0.94
303.13 K | 936.1 ± 0.4 | 1173.4 ± 0.63 | 1306.48 ± 0.81 | 1379.62 ± 0.87 | 1442.24 ± 0.89 | 1482.39 ± 0.91 | 1500.2 ± 0.92 | 1511.85 ± 0.93
308.15 K | 930.61 ± 0.41 | 1168.18 ± 0.62 | 1301.14 ± 0.8 | 1374.57 ± 0.86 | 1437.1 ± 0.88 | 1477.35 ± 0.9 | 1495.13 ± 0.91 | 1506.8 ± 0.92
313.15 K | 925.26 ± 0.54 | 1162.68 ± 0.74 | 1296.39 ± 0.81 | 1369.51 ± 0.86 | 1432.02 ± 0.88 | 1472.28 ± 0.89 | 1490.11 ± 0.9 | 1501.74 ± 0.91

C[S+](C)[O-] [dimethyl sulfoxide] + CCn1cc[n+](C)c1.O=S(=O)([N-]S(=O)(=O)C(F)(F)F)C(F)(F)F
[2], x2 = 0
Details | mass density [kg/m3]
293.15 K | 1100.31 ± 0.29
298.15 K | 1095.3 ± 0.28
303.13 K | 1090.31 ± 0.27
308.15 K | 1085.27 ± 0.26
313.15 K | 1080.27 ± 0.26

C1CCOC1 [tetrahydrofuran] + CCCC[n+]1ccn(C)c1.O=S(=O)([N-]S(=O)(=O)C(F)(F)F)C(F)(F)F
[2], x2 = 0
Details | mass density [kg/m3]
293.15 K | 887.41 ± 0.46
298.15 K | 881.98 ± 0.46
303.13 K | 876.47 ± 0.47
308.15 K | 870.96 ± 0.48
